PMC5807507, “Crystal structures of a bacterial dipeptidyl peptidase IV reveal a novel substrate recognition mechanism distinct from that of mammalian orthologues” (Scientific Reports, 2018)
Read-outs that look alike come from different tables or passages of the source.

Assays:
PmDAP IV [1] = biological target: T1, PmDAP IV (Pseudoxanthomonas mexicana, UniProt Q6F3I7); assay: biochemical
T1 construct: gene dap4; M12I lies in the removed signal; no tag; 723 residues, 82-kDa; homodimer; crystal model Ala22-Pro745
Description: Inhibitor sensitivities of PmDAP IV and human DPP IV Gliptins and diprotin A were purchased from NAMIKI SHOJI Co., Ltd. (Tokyo, Japan) and Peptide Institute, Inc. (Osaka, Japan), respectively. Half-maximal inhibitory concentration (IC50) values were determined by fitting to a sigmoid curve (4-parameter logistic curve) using ImageJ[73]. […] Inhibitor concentrations for PmDAP IV were 0.78, 1.56, 3.13, 6.25, 12.5, 25, 50 and 100 µM, and those for human DPP IV were 0.78, 1.56, 3.13, 6.25, 12.5, 25, 50 and 100 nM. Standard deviations were calculated from three independent experiments. Fluorescence intensity was measured with excitation at 355 nm and emission at 460 nm using an Infinite 200 PRO microplate reader. Inhibition constants (Ki) were calculated using the Cheng-Prusoff equation[74]. Arg106 of PmDAP IV, which is involved in the recognition of the carbonyl group of the P2 residue of the substrate peptide, was mutated to Ala or Lys. The mutants were expressed and purified using the method described above for wild-type PmDAP IV. Recombinant human DPP IV was purchased from ATGen Co., Ltd. (Los Angeles, USA). Kinetic parameters were determined by fitting the experimental data to the Michaelis–Menten equation using Excel Solver (Microsoft) by nonlinear least squares fitting for different concentrations (0.78, 1.56, 3.13, 6.25, 12.5, 25, 50 and 100 µM) of glycyl-L-proline 4-methylcoumaryl-7-amide (Gly-Pro-MCA, Peptide Institute) as a substrate. The enzyme reaction was performed in a reaction buffer containing 50 mM sodium phosphate buffer pH 8.0, 5 mM EDTA and 0.005% Tween 20 at 298 K for 20 min, and standard deviations were calculated from three independent experiments. The fluorescence intensity of the released MCA was measured with excitation at 355 nm and emission at 460 nm using an Infinite 200 PRO microplate reader (TECAN).
Target sequence in this assay (Q6F3I7 22-745 limits assumed): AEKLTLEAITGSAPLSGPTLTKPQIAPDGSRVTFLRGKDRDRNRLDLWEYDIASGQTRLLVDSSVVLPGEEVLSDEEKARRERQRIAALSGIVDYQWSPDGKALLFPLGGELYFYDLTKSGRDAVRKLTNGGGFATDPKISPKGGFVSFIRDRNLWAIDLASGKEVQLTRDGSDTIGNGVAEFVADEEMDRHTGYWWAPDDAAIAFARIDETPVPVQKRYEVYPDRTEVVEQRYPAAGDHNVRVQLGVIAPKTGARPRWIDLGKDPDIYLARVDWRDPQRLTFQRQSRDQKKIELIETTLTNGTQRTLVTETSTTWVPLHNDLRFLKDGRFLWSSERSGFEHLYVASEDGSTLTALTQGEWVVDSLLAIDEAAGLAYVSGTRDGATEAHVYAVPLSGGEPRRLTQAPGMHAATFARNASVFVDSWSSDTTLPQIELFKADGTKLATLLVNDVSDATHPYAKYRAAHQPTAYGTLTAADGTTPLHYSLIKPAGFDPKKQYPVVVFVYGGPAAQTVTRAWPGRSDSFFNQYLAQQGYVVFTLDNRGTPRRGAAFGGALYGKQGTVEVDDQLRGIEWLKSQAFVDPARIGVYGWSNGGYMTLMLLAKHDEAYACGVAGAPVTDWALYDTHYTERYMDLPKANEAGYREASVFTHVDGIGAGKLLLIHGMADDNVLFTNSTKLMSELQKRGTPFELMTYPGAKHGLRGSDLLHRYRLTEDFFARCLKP

PmDAP IV [2] = biological target: T1, PmDAP IV; assay: Gly-Pro-MCA fluorescence hydrolysis inhibition; Ki by Cheng-Prusoff; type: biochemical
Excerpt: Gly-Pro-MCA fluorescence hydrolysis inhibition; Ki by Cheng-Prusoff on PmDAP IV
Target sequence in this assay (Q6F3I7 22-745): as the sequence (Q6F3I7 22-745 limits assumed) above

Row | SMILES | IC50 (PmDAP IV [1]) [µM] | Ki (PmDAP IV [2]) [µM] | Ki (PmDAP IV [2]; read-out: PmDAP IV / Ki) [µM]
1 | Cn1c(=O)cc(N2CCC[C@@H](N)C2)n(Cc2cc(F)ccc2C#N)c1=O [Trelagliptin] | > 100 |  | 
2 | N[C@@H](CC(=O)N1CCn2c(nnc2C(F)(F)F)C1)Cc1cc(F)c(F)cc1F [Sitagliptin] | 24.6 ± 3.6 | 4 ± 0.59 | 
3 | CC#CCn1c(N2CCC[C@@H](N)C2)nc2c1c(=O)n(Cc1nc(C)c3ccccc3n1)c(=O)n2C [Linagliptin] | > 100 |  | 30 ± 1.16
4 | Cc1cc(N2CCN([C@@H]3CN[C@H](C(=O)N4CCSC4)C3)CC2)n(-c2ccccc2)n1 [Teneligliptin] |  |  | 2.34 ± 0.09
5 | N#C[C@@H]1C[C@@H]2C[C@@H]2N1C(=O)[C@@H](N)C12CC3CC(CC(O)(C3)C1)C2 [Saxagliptin] | 11.1 ± 0.8 | 1.85 ± 0.13 | 
6 | CS(=O)(=O)n1cc2c(n1)CN([C@H]1CO[C@H](c3cc(F)ccc3F)[C@@H](N)C1)C2 [Omarigliptin] | > 100 |  | 23.8 ± 3.8
7 | Cc1cc2ncc(C(=O)NCC(C)(C)NCC(=O)N3CCC[C@H]3C#N)cn2n1 [Anagliptin] | 24.5 ± 0.4 |  | 3.99 ± 0.07
8 | N#C[C@@H]1CCCN1C(=O)CNC12CC3CC(CC(O)(C3)C1)C2 [Vildagliptin] | 18.8 ± 2.4 | 3.07 ± 0.39 | 
